Each structure is given as a SMILES string. A value given as a limit tells only on which side of the number the result lay.

Here are results for 26 molecules from US7026339B2, “Inhibitors of HCV NS5B polymerase” (priority 2003, dated 2006).

The test system of this assay is HuH-7 replicon cells 5–15 and 9–13 (HCV replication). The assay can be described thus: Inhibition of viral replication in HuH-7 replicon cells (HCV RNA / GAPDH RNA by multiplex RT-PCR). Type of assay: cell-based. The settings on record: Hepatitis C virus, 72 h; inhibiting 50% of replication; HuH-7 replicon cells, 3 days; read-out: IC50. The procedure:
Compounds were evaluated for inhibition of viral replication according to published procedures (Bartenschlager, R., et. al., Science, 1999, 285, 110) with modifications as follows.
HuH-7 replicon cells 5–15 and 9–13 were cultured in Dulbecco's minimal essential medium (DMEM) containing high glucose and supplemented with 10% fetal bovine serum (FBS), L-glutamine (2 mM), non-essential amino acids (1×), Penicillin (100 IU/mL)/Streptomycin (100 μg/mL) and G418 (Geneticin, 750 μg/mL). Unless otherwise specified, all media components were obtained from Invitrogen. Replicon cell line stocks were maintained as sub-confluent monolayers by passaging every Monday (1:6 split) and Thursday (1:10 split) and incubated at 37° C. with 5% CO2. Tissue culture plates (96-well white clear bottom plates, Corning #3610) were seeded at 7×10^3 cells/well and incubated for 24 hours prior to addition of the compounds.
Compounds in dry powder form were diluted in DMSO (30 mM stock). Serial dilutions of each Compound in DMSO (10 mM–0.1 mM) were performed in a 96-well polypropylene plate using a microtiter format. Culture media (200 μl) was added to the corresponding wells of a sterile 96-well round bottom plate. Diluted compound (2 μl) was added to the corresponding wells of the medial plate (final compound concentrations: 100 μM–1 μM). Culture media was removed from the corresponding wells of the 96-well plate containing the replicon cells and 150 μl diluted compound added. Media containing 1% DMSO and a serially diluted IFN were included on each plate. The cultures were incubated at 37° C. with 5% CO2 for 3 days. Cultures were observed visually for cytotoxicity or compound precipitation prior to RNA extraction described below.
Total cellular RNA was extracted by spin column technology (RNeasy 96, Qiagen) using the vacuum methodology according to the manufacturer's protocol. In brief, culture media was removed and 100 μl RLT lysis buffer containing 0.14M β-mercaptoethanol (β-ME) was added to each well. The plate was kept flat on the laboratory bench and shaken vigorously to lyse the cells. An equal volume of 70% ETOH was mixed with the lysate and added to the corresponding columns of the RNeasy 96-well plate. Vacuum was applied to draw the lysate through the filters. After ventilating the plate, buffer RW1 (1 mL) was drawn through each column. The waste tray was emptied and the filters washed twice with buffer RPE (1 mL/wash). After ventilating the tray, the RNeasy plate was removed and the bottom of the plate struck several times on a stack of paper towels to remove excess wash buffer. The waste tray was removed from the vacuum apparatus and the RNeasy 96-well plate dried by applying vacuum for 10 minutes. Total cellular RNA was eluted from the columns with two washes of 60 μl RNase-free water.
Relative quantitative multiplex RT-PCR was performed using TaqMan (TM) EZ RT Core Reagent kit (Perkin Elmer) according to the manufacturer's protocol (PE Applied Biosystems User Bulletin #2). Primer 061 (NT 61–82) and 139 (NT 139–158) amplifying a short region in the 5′ untranslated region of the HCV genome were utilized at 300 nM final concentrations. Probe #3 (NT 97–119) labeled with FAM reporter dye was utilized at 200 nM final concentration. Pre-developed human GAPDH primers and probe labeled with VIC reporter dye were obtained from PE Applied Biosystems (# 4310884E) and used according to the manufacturer's protocol. TM RT-PCR master mix was prepared containing the above primers/probe for both target RNA. Total cellular RNA (2 μl) was added to the reaction tubes of a 96-well optical plate that corresponded to the wells of the replicon culture plate. The final volume of each reaction was 50 μl. A standard curve was prepared from ten-fold serial dilutions of total cellular RNA extracated from 10^6 replicon cells and eluted in 30 μl RNase-free water. […]
(In antiviral work, replicon cells carry a viral genome segment that copies itself.)
What is called IC50 is the midpoint of a concentration-inhibition curve. Take `CN(C)c1ccc(C(=O)N/N=C/c2ccccc2OS(=O)(=O)c2ccc(C(F)(F)F)cc2)cc1` [Compound 79, 2-((E)-{2-[4-(dimethylamino)benzoyl]hydrazono}methyl)-phenyl 4-(trifluoromethyl)benzenesulfonate]: the IC50 lay in the range of 5 to 50 µM.
Take `O=C(Cc1ccc(F)cc1)N/N=C/c1ccccc1OS(=O)(=O)c1ccc(C(F)(F)F)cc1` [Compound 8, 2-((E)-{2-[2-(4-fluorophenyl)acetyl]hydrazono}methyl)-phenyl 4-(trifluoromethyl)benzenesulfonate]: the IC50 was < 5 µM.
To `Cn1cnc(CC(=O)N/N=C/c2ccccc2OS(=O)(=O)c2ccc(C(F)(F)F)cc2)c1` [Compound 106, 2-((E)-{2-[2-(1-methyl-1H-imidazol-4-yl)acetyl]hydrazono}methyl)phenyl 4-(trifluoromethyl)benzenesulfonate] belongs < 5 µM; to `O=C(Cc1ccc(SC(F)(F)F)cc1)N/N=C/c1ccccc1OS(=O)(=O)c1ccc(C(F)(F)F)cc1` [Compound 19, 2-{(E)-[2-(2-{4-[(trifluoromethyl)thio]phenyl}acetyl)hydra-zono]methyl}phenyl 4-(trifluoromethyl)benzenesulfonate], 5 to 50 µM.
`COc1cccc(CC(=O)N/N=C/c2cccc(C)c2OS(=O)(=O)c2ccc(C)cc2)c1` [Compound 163, 2-((E)-{[(3-methoxyphenyl)acetyl]hydrazono}methyl)-6-methylphenyl 4-methylbenzenesulfonate]: the IC50 is < 5 µM.
As to `CCCCOc1ccc(S(=O)(=O)Oc2ccccc2/C=N/NC(=O)Cc2cccc(OC)c2)cc1` [Compound 199, 2-((E)-{2-[2-(3-methoxyphenyl)acetyl]hydrazono}methyl)-phenyl 4-butoxybenzenesulfonate], the IC50 is < 5 µM.
In the case of `COc1ccc(CC(=O)N/N=C/c2ccccc2OS(=O)(=O)c2ccc(C(F)(F)F)cc2)c(OC)c1OC` [Compound 15, 2-((E)-{2-[2-(2,3,4-trimethoxyphenyl)acetyl]hydrazono}-methyl)phenyl 4-(trifluoromethyl)-benzenesulfonate], the IC50 was < 5 µM.
Take `COc1cccc(CC(=O)N/N=C/c2ccccc2OS(=O)(=O)c2ccc(Oc3cccnc3)cc2)c1` [Compound 217, 2-((E)-{2-[2-(3-methoxyphenyl)acetyl]hydrazono}methyl)-phenyl 4-(pyridin-3-yloxy)benzenesulfonate]: the IC50 is 5 to 50 µM.
`COc1cccc(CC(=O)N/N=C/c2ccccc2OS(=O)(=O)c2ccc(Oc3ccccc3)nc2)c1` [Compound 201, 2-((E)-{2-[2-(3-methoxyphenyl)acetyl]hydrazono}methyl)-phenyl 6-phenoxypyridine-3-sulfonate]: the IC50 is < 5 µM.
In the case of `Cc1ncccc1C(=O)N/N=C/c1ccccc1OS(=O)(=O)c1ccc(C(F)(F)F)cc1` [Compound 92, 2-((E)-{2-[(2-methylpyridin-3-yl)carbonyl]hydrazono}methyl)phenyl 4-(trifluoromethyl)benzenesulfonate], the IC50 is 5 to 50 µM.
As to `O=C(Cc1cccc(Cl)c1)N/N=C/c1cccnc1OS(=O)(=O)c1ccc(C(F)(F)F)cc1` [Compound 215, 3-((E)-{2-[2-(3-chlorophenyl)acetyl]hydrazono}methyl)-pyridin-2-yl 4-(trifluoromethyl)benzenesulfonate], the IC50 was > 50 µM.
To `COc1ccc(CC(=O)N/N=C/c2ccccc2OS(=O)(=O)c2ccc(C(F)(F)F)cc2)cc1OC` [Compound 150, 2-((E)-{2-[2-(3,4-dimethoxyphenyl)acetyl]hydrazono}methyl)-phenyl 4-(trifluoromethyl)benzenesulfonate] belongs < 5 µM; to `O=C(Cc1cc(F)c(F)cc1F)N/N=C/c1ccccc1OS(=O)(=O)c1ccc(C(F)(F)F)cc1` [Compound 17, 2-((E)-{2-[2-(2,4,5-trifluorophenyl)acetyl]hydrazono}methyl)-phenyl 4-(trifluoromethyl)benzenesulfonate], < 5 µM; to `O=C(Cc1ccc(C(F)(F)F)cc1)N/N=C/c1ccccc1OS(=O)(=O)c1ccc(C(F)(F)F)cc1` [Compound 34, 2-[(E)-(2-{2-[4-(trifluoromethyl)phenyl]acetyl}hydrazono)-methyl]phenyl 4-(trifluoromethyl)benzenesulfonate], < 5 µM.
Consider `COc1ccccc1C(=O)N/N=C/c1ccccc1OS(=O)(=O)c1ccc(C(F)(F)F)cc1` [Compound 87, 2-{(E)-[2-(2-methoxybenzoyl)hydrazono]methyl}phenyl4-(trifluoromethyl)benzenesulfonate], for which the IC50 is > 50 µM.
Take `O=C(CCc1ccco1)N/N=C/c1ccccc1OS(=O)(=O)c1ccc(C(F)(F)F)cc1` [Compound 54, 2-((E)-{2-[3-(2-furyl)propanoyl]hydrazono}methyl)phenyl4-(trifluoromethyl)benzenesulfonate]: the IC50 was < 5 µM.
As for `O=C(Cc1cncc(Br)c1)N/N=C/c1ccccc1OS(=O)(=O)c1ccc(C(F)(F)F)cc1` [Compound 61, 2-((E)-{2-[2-(5-bromopyridin-3-yl)acetyl]hydrazono}methyl)phenyl 4-(trifluoromethyl)benzenesulfonate], the IC50 is < 5 µM.
To `COc1ccc2[nH]cc(CC(=O)N/N=C/c3ccccc3OS(=O)(=O)c3ccc(C(F)(F)F)cc3)c2c1` [Compound 49, 2-((E)-{2-[2-(5-methoxy-1H-indol-3-yl)acetyl]hydrazono}methyl)phenyl 4-(trifluoromethyl)benzenesulfonate] belongs 5 to 50 µM.
In the case of `Cc1cccc(S(=O)(=O)Oc2ccccc2/C=N/NC(=O)Cc2ccccc2)c1` [Compound 111, 2-{(E)-[2-(2-phenylacetyl)hydrazono]methyl}phenyl 3-methylbenzenesulfonate], the IC50 is > 50 µM.
Consider `O=C(Cc1cccnc1)N/N=C/c1ccccc1OS(=O)(=O)c1ccc(C(F)(F)F)cc1` [Compound 6, 2-{(E)-[2-(2-pyridin-3-ylacetyl)hydrazono]methyl}phenyl 4-(trifluoromethyl)benzenesulfonate], for which the IC50 was < 5 µM.
`O=C(Cc1ccc(F)c(F)c1F)N/N=C/c1ccccc1OS(=O)(=O)c1ccc(C(F)(F)F)cc1` [Compound 16, 2-((E)-{2-[2-(2,3,4-trifluorophenyl)acetyl]hydrazono}methyl)-phenyl 4-(trifluoromethyl)benzenesulfonate]: the IC50 was < 5 µM.
To `COc1cccc(CC(=O)N/N=C/c2ccccc2CS(=O)(=O)c2ccc(C)cc2)c1` [Compound 233, 2-(3-methoxyphenyl)-N′-[(1 E)-(2-{[(4-methylphenyl)sulfonyl]methyl}phenyl)-methylene]acetohydrazide] belongs < 5 µM.
To `O=C(Cc1ccccc1)N/N=C/c1ccccc1OS(=O)(=O)c1ccc(F)c(Cl)c1` [Compound 120, 2-{(E)-[2-(2-phenylacetyl)hydrazono]methyl}phenyl 3-chloro-4-fluorobenzenesulfonate] belongs 5 to 50 µM; to `O=C(Cc1ccc(Cl)nc1)N/N=C/c1ccccc1OS(=O)(=O)c1ccc(C(F)(F)F)cc1` [Compound 63, 2-((E)-{2-[2-(6-chloropyridin-3-yl)acetyl]hydrazono}methyl)phenyl 4-(trifluoromethyl)benzenesulfonate], < 5 µM.
`COc1cccc(CC(=O)N/N=C/c2ccccc2OS(=O)(=O)c2ccc(Oc3ccccc3)cc2)c1` [Compound 191, 2-((E)-{2-[2-(3-methoxyphenyl)acetyl]hydrazono}methyl)-phenyl 4-phenoxybenzenesulfonate]: the IC50 is > 50 µM.
Take `O=S(=O)(Cc1ccc(C(F)(F)F)cc1)N/N=C/c1ccccc1OS(=O)(=O)c1ccc(C(F)(F)F)cc1` [Compound 252, 2-[(E)-(2-{[4-(trifluoromethyl)benzyl]sulfonyl}hydrazono)-methyl]phenyl 4-(trifluoromethyl)benzenesulfonate]: the IC50 lay within 5 to 50 µM.
